Here are results for three compounds from ChEMBL document CHEMBL1157422, “Phloroglucinols with antioxidant activity and xanthonolignoids from the heartwood of Hypericum geminiflorum” (J Nat Prod, 2008).

Assay [1] concerns Radical scavenging activity. Put plainly: Antioxidant activity assessed as DPPH free radical scavenging. The assay is classed as functional.
Assay [2] addresses Xanthine dehydrogenase/oxidase (Homo sapiens, UniProt P47989). Put plainly: Inhibition of xanthine oxidase.
For assay [3], the system named is Radical scavenging activity. Put plainly: Antioxidant activity assessed as DPPH free radical scavenging at 300 uM. The assay is classed as functional. On the technique in general: The DPPH test is a chemical assay of radical scavenging.
Assay [4] concerns Escherichia coli. Put plainly: Inhibition of oxygen free radical-induced DNA damage of Escherichia coli plasmid DNA pBR322 by agarose gel electrophoresis.

The source made the active and inactive calls. The calls are words filed in the database; no cut-off is given here.

Chain of Xanthine dehydrogenase/oxidase (P47989 whole entry): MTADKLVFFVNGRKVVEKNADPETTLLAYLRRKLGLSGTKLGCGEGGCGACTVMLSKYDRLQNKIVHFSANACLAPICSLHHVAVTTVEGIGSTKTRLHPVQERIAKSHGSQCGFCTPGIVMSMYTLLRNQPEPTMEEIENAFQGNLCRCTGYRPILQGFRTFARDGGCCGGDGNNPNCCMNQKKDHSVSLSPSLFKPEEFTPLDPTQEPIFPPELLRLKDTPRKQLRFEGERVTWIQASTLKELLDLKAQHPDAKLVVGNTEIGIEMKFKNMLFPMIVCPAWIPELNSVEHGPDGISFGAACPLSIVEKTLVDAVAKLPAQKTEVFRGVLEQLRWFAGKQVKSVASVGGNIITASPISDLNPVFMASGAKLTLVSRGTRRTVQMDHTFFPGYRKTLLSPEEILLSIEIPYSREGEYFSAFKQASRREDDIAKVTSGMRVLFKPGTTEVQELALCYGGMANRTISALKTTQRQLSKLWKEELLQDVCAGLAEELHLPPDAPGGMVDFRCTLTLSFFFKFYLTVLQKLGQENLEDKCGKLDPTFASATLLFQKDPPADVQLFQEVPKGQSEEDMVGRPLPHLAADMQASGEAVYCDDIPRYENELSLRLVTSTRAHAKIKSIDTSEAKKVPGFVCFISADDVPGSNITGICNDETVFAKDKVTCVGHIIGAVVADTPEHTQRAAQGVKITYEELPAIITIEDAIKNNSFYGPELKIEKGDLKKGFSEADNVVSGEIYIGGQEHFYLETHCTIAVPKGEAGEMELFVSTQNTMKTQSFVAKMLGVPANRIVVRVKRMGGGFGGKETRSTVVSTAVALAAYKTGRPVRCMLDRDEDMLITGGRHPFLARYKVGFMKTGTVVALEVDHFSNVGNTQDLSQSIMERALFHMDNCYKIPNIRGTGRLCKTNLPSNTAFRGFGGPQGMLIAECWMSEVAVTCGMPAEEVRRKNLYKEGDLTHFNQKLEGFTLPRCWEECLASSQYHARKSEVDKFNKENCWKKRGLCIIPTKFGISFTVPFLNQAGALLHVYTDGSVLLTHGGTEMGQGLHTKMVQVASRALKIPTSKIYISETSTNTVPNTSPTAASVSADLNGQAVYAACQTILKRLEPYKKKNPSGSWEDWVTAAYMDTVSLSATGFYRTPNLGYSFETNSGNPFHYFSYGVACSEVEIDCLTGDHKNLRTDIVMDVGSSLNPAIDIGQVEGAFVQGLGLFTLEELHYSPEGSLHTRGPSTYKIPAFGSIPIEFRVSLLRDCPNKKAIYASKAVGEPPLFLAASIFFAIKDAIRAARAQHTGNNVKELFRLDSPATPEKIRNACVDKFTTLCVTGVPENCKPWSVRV

As to `Cc1c(C)c2c(c(C)c1O)CC[C@@](C)(CCCC(C)CCCC(C)CCCC(C)C)O2` (single isomer, unassigned) [ALPHA-TOCOPHEROL], in assay [1], the IC50 was 18.1 µM.
In turn, `CCC(C)C(=O)C1=C(O)[C@@](C)(CC=C(C)C)C(=O)[C@@]2(C[C@H]3[C@H](CC[C@@]3(C)O)[C@](C)(O)C2)C1=O` (some centres not stated) [HYPERIELLIPTONE HB] returned an IC50 in assay [2] of 42.1 µM. For the same compound, in assay [3], the inhibition amounted to 4.5%. Moreover, the outcome in assay [4] was Active.
For `CCC(C)C(=O)C1=C(O)[C@]2(C[C@H]3[C@H](CC[C@@]3(C)O)[C@](C)(O)C2)C(=O)[C@](C)(CC=C(C)C)C1=O` (some centres not stated) [HYPERIELLIPTONE HB] the same measures were 42.1 µM, 4.5% and “Active”.

In general, IC50 refers to the concentration needed to halve the response being measured. For orientation: inhibition means the share of the control response that was lost under treatment.
